Experimental data published in PubChem BioAssay (NCI).
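Five concentrations, 48 hours, 96-well plates. TGI: concentration producing complete growth inhibition.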

Tests used:
Experiment in all cases: growth of human tumour cells (NCI), 48 h
786-0 renal = system: 786-0 renal
A498 renal = system: A498 renal
A549 NSCLC = system: A549 NSCLC
ACHN renal = system: ACHN renal
CAKI-1 renal = system: CAKI-1 renal
CCRF-CEM leukemia = system: CCRF-CEM leukemia
COLO 205 colon = system: COLO 205 colon
DMS 273 small cell lung = system: DMS 273 small cell lung
EKVX NSCLC = system: EKVX NSCLC
HCC-2998 colon = system: HCC-2998 colon
HCT-116 colon = system: HCT-116 colon
HL-60(TB) leukemia = system: HL-60(TB) leukemia
HOP-18 NSCLC = system: HOP-18 NSCLC
HOP-62 NSCLC = system: HOP-62 NSCLC
HOP-92 NSCLC = system: HOP-92 NSCLC
HT29 colon = system: HT29 colon
IGROV1 ovarian = system: IGROV1 ovarian
K-562 leukemia = system: K-562 leukemia
KM12 colon = system: KM12 colon
KM20L2 colon = system: KM20L2 colon
LOX IMVI melanoma = system: LOX IMVI melanoma
LXFL 529 NSCLC = system: LXFL 529 NSCLC
M19-MEL melanoma = system: M19-MEL melanoma
MALME-3M melanoma = system: MALME-3M melanoma
MOLT-4 leukemia = system: MOLT-4 leukemia
NCI-H226 lung = system: NCI-H226 lung
NCI-H23 lung = system: NCI-H23 lung
NCI-H460 lung = system: NCI-H460 lung
NCI-H522 lung = system: NCI-H522 lung
OVCAR-4 ovarian = system: OVCAR-4 ovarian
OVCAR-5 ovarian = system: OVCAR-5 ovarian
OVCAR-8 ovarian = system: OVCAR-8 ovarian
RXF 393 renal = system: RXF 393 renal
SF-268 CNS = system: SF-268 CNS
SF-295 CNS = system: SF-295 CNS
SF-539 CNS = system: SF-539 CNS
SK-MEL-2 melanoma = system: SK-MEL-2 melanoma
SK-MEL-28 melanoma = system: SK-MEL-28 melanoma
SN12C renal = system: SN12C renal
SNB-19 CNS = system: SNB-19 CNS
SNB-78 CNS = system: SNB-78 CNS
SR leukemia = system: SR leukemia
SW-620 colon = system: SW-620 colon
TK-10 renal = system: TK-10 renal
U251 CNS = system: U251 CNS
UACC-257 melanoma = system: UACC-257 melanoma
XF 498 CNS = system: XF 498 CNS
DLD-1 colon = system: DLD-1 colon
DMS 114 small cell lung = system: DMS 114 small cell lung
HCT-15 colon = system: HCT-15 colon
M14 melanoma = system: M14 melanoma
OVCAR-3 ovarian = system: OVCAR-3 ovarian
RPMI-8226 leukemia = system: RPMI-8226 leukemia
SK-MEL-5 melanoma = system: SK-MEL-5 melanoma
SK-OV-3 ovarian = system: SK-OV-3 ovarian
SNB-75 CNS = system: SNB-75 CNS
UACC-62 melanoma = system: UACC-62 melanoma
UO-31 renal = system: UO-31 renal

For `C#CC1(O)c2ccccc2C(=O)c2ccccc21`, the TGI (786-0 renal) was > 100 µM, the TGI (A498 renal) was > 100 µM and the TGI (A549 NSCLC) was > 100 µM. For the same compound, the TGI (ACHN renal) was > 100 µM, the TGI (CAKI-1 renal) was > 100 µM and the TGI (CCRF-CEM leukemia) was > 100 µM. For the same compound, the TGI (COLO 205 colon) was > 100 µM, the TGI (DMS 273 small cell lung) was > 100 µM and the TGI (EKVX NSCLC) was > 100 µM. The TGI (HCC-2998 colon) was > 100 µM, the TGI (HCT-116 colon) was > 100 µM and the TGI (HL-60(TB) leukemia) was > 100 µM. For the same compound, the TGI (HOP-18 NSCLC) was > 100 µM, the TGI (HOP-62 NSCLC) was > 100 µM and the TGI (HOP-92 NSCLC) was 99.6 µM. For the same compound, the TGI (HT29 colon) was > 100 µM, the TGI (IGROV1 ovarian) was > 100 µM and the TGI (K-562 leukemia) was > 100 µM. The TGI (KM12 colon) was > 100 µM, the TGI (KM20L2 colon) was > 100 µM and the TGI (LOX IMVI melanoma) was > 100 µM. The TGI (LXFL 529 NSCLC) was > 100 µM, the TGI (M19-MEL melanoma) was > 100 µM and the TGI (MALME-3M melanoma) was > 100 µM. For the same compound, the TGI (MOLT-4 leukemia) was > 100 µM, the TGI (NCI-H226 lung) was > 100 µM and the TGI (NCI-H23 lung) was > 100 µM. For the same compound, the TGI (NCI-H460 lung) was > 100 µM, the TGI (NCI-H522 lung) was > 100 µM and the TGI (OVCAR-4 ovarian) was > 100 µM. The TGI (OVCAR-5 ovarian) was > 100 µM, the TGI (OVCAR-8 ovarian) was > 100 µM and the TGI (RXF 393 renal) was > 100 µM. For the same compound, the TGI (SF-268 CNS) was > 100 µM, the TGI (SF-295 CNS) was > 100 µM and the TGI (SF-539 CNS) was > 100 µM. The TGI (SK-MEL-2 melanoma) was > 100 µM, the TGI (SK-MEL-28 melanoma) was > 100 µM and the TGI (SN12C renal) was > 100 µM. The TGI (SNB-19 CNS) was > 100 µM, the TGI (SNB-78 CNS) was > 100 µM and the TGI (SR leukemia) was > 100 µM. The TGI (SW-620 colon) was > 100 µM, the TGI (TK-10 renal) was > 100 µM and the TGI (U251 CNS) was > 100 µM. The TGI (UACC-257 melanoma) was > 100 µM and the TGI (XF 498 CNS) was > 100 µM.
For `CC12CO[C@@](C)(CC(S(=O)(=O)c3ccccc3)C1)O2` (some centres undefined), the TGI (786-0 renal) was > 100 µM, the TGI (A549 NSCLC) was > 100 µM and the TGI (ACHN renal) was > 100 µM. For the same compound, the TGI (CCRF-CEM leukemia) was > 100 µM, the TGI (COLO 205 colon) was > 100 µM and the TGI (DLD-1 colon) was > 100 µM. For the same compound, the TGI (DMS 114 small cell lung) was > 100 µM, the TGI (DMS 273 small cell lung) was > 100 µM and the TGI (EKVX NSCLC) was > 100 µM. The TGI (HCC-2998 colon) was > 100 µM, the TGI (HCT-116 colon) was > 100 µM and the TGI (HCT-15 colon) was > 100 µM. For the same compound, the TGI (HL-60(TB) leukemia) was > 100 µM, the TGI (HOP-18 NSCLC) was > 100 µM and the TGI (HOP-62 NSCLC) was > 100 µM. For the same compound, the TGI (HOP-92 NSCLC) was > 100 µM, the TGI (HT29 colon) was > 100 µM and the TGI (IGROV1 ovarian) was > 100 µM. For the same compound, the TGI (K-562 leukemia) was > 100 µM, the TGI (KM12 colon) was > 100 µM and the TGI (KM20L2 colon) was > 100 µM. For the same compound, the TGI (LXFL 529 NSCLC) was > 100 µM, the TGI (M14 melanoma) was > 100 µM and the TGI (M19-MEL melanoma) was > 100 µM. The TGI (MALME-3M melanoma) was > 100 µM, the TGI (MOLT-4 leukemia) was > 100 µM and the TGI (NCI-H23 lung) was > 100 µM. For the same compound, the TGI (NCI-H460 lung) was > 100 µM, the TGI (NCI-H522 lung) was > 100 µM and the TGI (OVCAR-3 ovarian) was > 100 µM. The TGI (OVCAR-4 ovarian) was > 100 µM, the TGI (OVCAR-5 ovarian) was > 100 µM and the TGI (OVCAR-8 ovarian) was > 100 µM. The TGI (RPMI-8226 leukemia) was > 100 µM, the TGI (RXF 393 renal) was > 100 µM and the TGI (SF-268 CNS) was > 100 µM. For the same compound, the TGI (SF-295 CNS) was > 100 µM, the TGI (SF-539 CNS) was > 100 µM and the TGI (SK-MEL-2 melanoma) was > 100 µM. For the same compound, the TGI (SK-MEL-28 melanoma) was > 100 µM, the TGI (SK-MEL-5 melanoma) was > 100 µM and the TGI (SK-OV-3 ovarian) was > 100 µM. For the same compound, the TGI (SN12C renal) was > 100 µM, the TGI (SNB-19 CNS) was > 100 µM and the TGI (SNB-75 CNS) was > 100 µM. The TGI (SNB-78 CNS) was > 100 µM, the TGI (SR leukemia) was > 100 µM and the TGI (SW-620 colon) was > 100 µM. The TGI (U251 CNS) was > 100 µM, the TGI (UACC-257 melanoma) was > 100 µM and the TGI (UACC-62 melanoma) was > 100 µM. The TGI (UO-31 renal) was > 100 µM.
